In patent US20260098026A1, “M4 ACTIVATORS/MODULATORS AND USES THEREOF” (Cerevel Therapeutics, LLC, priority 2022, published 2026):
pEC50: −log10 of the molar value.

Assays:
Format in all cases: cell-based
[1] = target: T1, M5 muscarinic acetylcholine receptor (mAChR) (Homo sapiens, UniProt P08912); assay: FLIPR calcium assay (Fluo 8), M5-overexpressing CHO-K1 cells
T1 construct: expressed in transfected cells; host or cells: CHO-K1
T1 sequence (P08912 1-532): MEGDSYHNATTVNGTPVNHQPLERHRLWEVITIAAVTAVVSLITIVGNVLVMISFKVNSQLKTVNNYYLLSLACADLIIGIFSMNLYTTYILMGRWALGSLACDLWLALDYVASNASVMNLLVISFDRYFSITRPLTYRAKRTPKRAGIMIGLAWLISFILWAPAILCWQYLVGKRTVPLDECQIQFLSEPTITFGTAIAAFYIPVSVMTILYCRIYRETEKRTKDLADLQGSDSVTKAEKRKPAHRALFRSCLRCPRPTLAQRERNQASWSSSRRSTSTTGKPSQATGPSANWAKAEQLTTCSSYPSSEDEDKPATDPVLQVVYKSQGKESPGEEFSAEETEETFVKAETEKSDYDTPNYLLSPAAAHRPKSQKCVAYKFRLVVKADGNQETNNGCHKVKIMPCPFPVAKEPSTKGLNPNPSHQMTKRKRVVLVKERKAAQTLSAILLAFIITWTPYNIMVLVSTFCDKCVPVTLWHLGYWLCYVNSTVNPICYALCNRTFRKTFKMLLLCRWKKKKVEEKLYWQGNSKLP
Description: (§1) Stimulation of a Gq-coupled G-protein coupled receptors (GPCRs), result in an efflux of calcium from the endoplasmic reticulum to the cytoplasm (Berridge, 1993), thus rendering this assay appropriate for the assessment of M1, M3 and M5 receptors. CHO-K1 cells overexpressing the M1, M3, or M5 muscarinic acetylcholine receptor (mAChR) were dispensed at 15,000 cells per well in 30 μl volume to 384-well plates and grown overnight at 37° C. in a 5% CO2 atmosphere. Fluo-8 Solution, 10 μl per well, was added to each well and incubated for 30 minutes at 37° C. in a 5% CO2 atmosphere. Compounds diluted in Hanks' balanced salt solution (HBSS) were transferred to the cell assay plate at 10 μl per well, and then read on a FLIPR instrument. EC50 and Emax figures were calculated from the resulting data for each receptor subtype.

[2] = target: T2, M4 mAChR (Homo sapiens, UniProt P08173); assay: cAMP TR-FRET assay with forskolin, M4-overexpressing CHO-K1 cells
T2 construct: expressed in transfected cells; host or cells: CHO-K1
T2 sequence (P08173 1-479): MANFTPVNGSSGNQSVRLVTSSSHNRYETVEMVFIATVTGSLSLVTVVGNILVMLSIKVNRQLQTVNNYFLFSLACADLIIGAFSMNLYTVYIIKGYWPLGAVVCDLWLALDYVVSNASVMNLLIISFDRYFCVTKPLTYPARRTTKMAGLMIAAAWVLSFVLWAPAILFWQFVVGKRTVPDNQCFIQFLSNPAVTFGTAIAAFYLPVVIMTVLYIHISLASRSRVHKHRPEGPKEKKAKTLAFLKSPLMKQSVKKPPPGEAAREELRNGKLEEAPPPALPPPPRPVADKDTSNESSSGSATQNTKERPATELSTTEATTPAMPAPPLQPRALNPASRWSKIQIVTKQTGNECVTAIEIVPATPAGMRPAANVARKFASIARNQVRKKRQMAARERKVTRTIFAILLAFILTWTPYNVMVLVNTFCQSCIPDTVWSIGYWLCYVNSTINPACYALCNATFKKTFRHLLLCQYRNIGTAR
Method in brief: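 CHO-K1 cells overexpressing the receptor were stimulated with forskolin to raise cAMP, so that Gi-mediated agonist decreases could be measured. cAMP was quantified by TR-FRET competition between cellular cAMP and labelled donor for anti-cAMP antibody, giving potency and efficacy.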

[3] = target: T3, M3 muscarinic acetylcholine receptor (mAChR) (Homo sapiens, UniProt P20309); assay: FLIPR calcium assay (Fluo 8), M3-overexpressing CHO-K1 cells
T3 construct: expressed in transfected cells; host or cells: CHO-K1
Method in brief: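 CHO-K1 cells overexpressing each human receptor seeded at 15,000 per well, grown overnight at 37° C., 5% CO2, then loaded with Fluo-8 for 30 min. Compounds in HBSS added and calcium response read on FLIPR; EC50 and Emax calculated per subtype.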

[4] = target: T4, M2 mAChR (Homo sapiens, UniProt P08172); assay: cAMP TR-FRET assay with forskolin, M2-overexpressing CHO-K1 cells
T4 construct: expressed in transfected cells; host or cells: CHO-K1
T4 sequence (P08172 1-466): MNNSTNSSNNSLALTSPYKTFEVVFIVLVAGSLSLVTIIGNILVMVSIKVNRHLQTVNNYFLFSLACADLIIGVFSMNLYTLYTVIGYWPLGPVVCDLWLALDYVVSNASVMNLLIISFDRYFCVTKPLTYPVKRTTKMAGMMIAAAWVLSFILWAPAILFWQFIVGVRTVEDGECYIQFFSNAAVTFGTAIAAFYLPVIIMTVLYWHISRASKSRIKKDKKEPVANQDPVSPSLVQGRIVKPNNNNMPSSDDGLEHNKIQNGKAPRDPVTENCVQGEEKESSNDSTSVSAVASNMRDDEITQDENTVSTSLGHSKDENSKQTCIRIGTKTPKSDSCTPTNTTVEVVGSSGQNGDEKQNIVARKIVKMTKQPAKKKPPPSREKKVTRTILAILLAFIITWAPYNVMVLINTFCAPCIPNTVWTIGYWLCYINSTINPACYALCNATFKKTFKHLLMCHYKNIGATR
Source text: The M2 and M4 mACh receptors are Gi-coupled receptors which, upon activation, produce a decrease in cAMP. Assays were developed that measured the potency and efficacy of compounds at the M2 or M4 mAChR using M2- or M4-overexpressing CHO-K1 cell lines. Time-resolved fluorescence resonance energy transfer (TR-FRET) technology was used, where signal occurs as a result of transfer of energy if the donor molecule is in close proximity to an acceptor molecule when the molecules have bound to the molecule of interest. The cAMP detection is a competition binding assay, where cAMP produced by cells competes for binding with the labeled donor molecule to the anti-cAMP acceptor antibody. Due to the low basal levels of cAMP in the CHO-K1 cell line, forskolin was used to increase cAMP levels to enable assessment of agonist activity at the mAChR of interest.

[5] = target: T5, M1 muscarinic acetylcholine receptor (mAChR) (Homo sapiens, UniProt P11229); assay: FLIPR calcium assay (Fluo 8), M1-overexpressing CHO-K1 cells
T5 construct: expressed in transfected cells; host or cells: CHO-K1
T5 sequence (P11229 1-460): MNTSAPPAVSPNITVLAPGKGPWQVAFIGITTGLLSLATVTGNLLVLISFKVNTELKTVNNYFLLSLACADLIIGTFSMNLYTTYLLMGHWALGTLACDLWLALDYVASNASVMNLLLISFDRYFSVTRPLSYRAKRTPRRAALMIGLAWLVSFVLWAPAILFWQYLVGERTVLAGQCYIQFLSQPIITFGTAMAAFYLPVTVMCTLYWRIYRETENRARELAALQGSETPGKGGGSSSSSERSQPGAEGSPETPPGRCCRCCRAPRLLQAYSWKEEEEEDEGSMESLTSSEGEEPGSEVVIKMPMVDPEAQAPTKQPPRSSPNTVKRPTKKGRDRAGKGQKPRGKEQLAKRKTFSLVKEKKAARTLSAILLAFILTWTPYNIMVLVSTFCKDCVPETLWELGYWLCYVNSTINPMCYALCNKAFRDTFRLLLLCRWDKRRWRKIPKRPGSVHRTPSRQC
Description: as §1

T3 sequence (P20309 whole entry): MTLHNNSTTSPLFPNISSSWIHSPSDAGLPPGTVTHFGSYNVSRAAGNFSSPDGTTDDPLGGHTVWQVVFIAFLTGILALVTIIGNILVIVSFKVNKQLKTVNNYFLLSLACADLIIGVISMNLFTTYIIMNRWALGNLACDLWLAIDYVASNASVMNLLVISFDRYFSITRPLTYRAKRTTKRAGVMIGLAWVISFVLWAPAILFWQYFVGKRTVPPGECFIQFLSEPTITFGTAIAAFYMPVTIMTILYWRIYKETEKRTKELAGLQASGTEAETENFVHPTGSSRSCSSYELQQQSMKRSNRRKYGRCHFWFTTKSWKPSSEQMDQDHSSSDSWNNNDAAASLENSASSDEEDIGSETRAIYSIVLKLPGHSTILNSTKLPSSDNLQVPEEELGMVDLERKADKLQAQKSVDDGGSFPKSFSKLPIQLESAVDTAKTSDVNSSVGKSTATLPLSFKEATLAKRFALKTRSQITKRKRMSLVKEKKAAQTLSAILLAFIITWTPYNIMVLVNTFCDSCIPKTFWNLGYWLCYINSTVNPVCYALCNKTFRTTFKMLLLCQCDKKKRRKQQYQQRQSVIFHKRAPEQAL

CCOC(=O)N1CC2(CC[C@@H](N3CCN(c4cccnc4-c4cncc(OC)c4)CC3)C2)C1 [Compound A1, ethyl (6R)-6-[4-[2-(5-methoxy-3-pyridyl)-3-pyridyl]piperazin-1-yl]-2-azaspiro[3.4]octane-2-carboxylate]
Emax ([1]; FLIPR calcium): 19 to 49.9% | Emax ([2]; cAMP TR-FRET with forskolin): 80 to 100% | pEC50 ([3]; FLIPR calcium): < 5.00

CCOC(=O)N1CC2(CC[C@@H](N3CCN(c4cc(F)cnc4C4CCOCC4)CC3)C2)C1 [Compound A7, ethyl (6R)-6-[4-(5-fluoro-2-tetrahydropyran-4-yl-3-pyridyl)piperazin-1-yl]-2-azaspiro[3.4]octane-2-carboxylate]
M2 EC50 (nM) ([4]; cAMP TR-FRET with forskolin): I.A | Emax ([2]; cAMP TR-FRET with forskolin): 80 to 100% | pEC50 ([3]; FLIPR calcium): < 5.00

CCOC(=O)N1CC2(CC[C@@H](N3CCN(c4cc(F)cnc4-c4cnc(SC)nc4)CC3)C2)C1 [Compound A63]
Emax ([1]; FLIPR calcium): 19 to 49.9% | Emax ([5]; FLIPR calcium): 19 to 49.9% | Emax ([2]; cAMP TR-FRET with forskolin): 80 to 100% | pEC50 ([3]; FLIPR calcium): < 5.00

CCOC(=O)N1CC2(CC[C@@H](N3CCN(c4cc(F)cnc4-c4cnn(CC(C)C)c4)CC3)C2)C1 [Compound A71]
Emax ([1]; FLIPR calcium): 19 to 49.9% | Emax ([2]; cAMP TR-FRET with forskolin): 80 to 100% | pEC50 ([3]; FLIPR calcium): < 5.00

CCOC(=O)N1CC2(CC[C@@H](N3CCN(c4cc(F)cnc4-c4cnn(CC)c4)CC3)C2)C1 [Compound A74]
Emax ([1]; FLIPR calcium): 19 to 49.9% | Emax ([2]; cAMP TR-FRET with forskolin): 80 to 100% | pEC50 ([3]; FLIPR calcium): < 5.00

CCNc1ncc(-c2ncc(F)cc2N2CCN([C@@H]3CCC4(C3)CN(C(=O)OCC)C4)CC2)cn1 [Compound A80]
Emax ([1]; FLIPR calcium): 19 to 49.9% | Emax ([5]; FLIPR calcium): 19 to 49.9% | Emax ([2]; cAMP TR-FRET with forskolin): 80 to 100% | pEC50 ([3]; FLIPR calcium): < 5.00

CCOC(=O)N1CC2(CC[C@@H](N3CCN(c4cc(F)cnc4-c4ccc(CO)o4)CC3)C2)C1 [Compound A91]
Emax ([1]; FLIPR calcium): 19 to 49.9% | Emax ([2]; cAMP TR-FRET with forskolin): 80 to 100% | pEC50 ([3]; FLIPR calcium): < 5.00

CCOC(=O)N1CC2(CC[C@@H](N3CCN(c4cc(F)cnc4-c4cnc(O)c(C)c4)CC3)C2)C1 [Compound A166]
Emax ([1]; FLIPR): 19 to 49.9% | Emax ([2]; cAMP assay): 80 to 100% | pEC50 ([3]; FLIPR): < 5.00

CCOC(=O)N1CC2(CC[C@@H](N3CCN(c4cc(F)cnc4-c4cnn(C(F)F)c4)CC3)C2)C1 [Compound A194]
Emax ([4]; cAMP assay): < 19% | Emax ([2]; cAMP assay): 80 to 100% | pEC50 ([3]; FLIPR): < 5.00

CCOC(=O)N1CC2(CC[C@@H](N3CCN(c4cc(F)cnc4-c4c[nH]c(=O)c(F)c4)CC3)C2)C1 [Compound A206]
Emax ([1]; FLIPR): 19 to 49.9% | Emax ([5]; FLIPR): 19 to 49.9% | Emax ([2]; cAMP assay): 80 to 100% | pEC50 ([3]; FLIPR): < 5.00

CCOC(=O)N1CC2(CC[C@@H](N3CCN(c4cc(F)cnc4-c4ccc(=O)[nH]c4)CC3)C2)C1 [Compound A210]
Emax ([1]; FLIPR): 19 to 49.9% | Emax ([5]; FLIPR): 50 to 79.9% | Emax ([2]; cAMP assay): 80 to 100% | pEC50 ([3]; FLIPR): < 5.00
